Measurements taken from patent US20150087610A1, “Method of Modifying Fertility” (Monell Chemical Senses Center, priority 2012, published 2015).
“Also recorded” adds a separate entry of the source.

Columns and labels:
C57B/6L wild-type sperm = experiment: Bitter blocker probenecid on calcium responses of wild-type mouse sperm; format: cell-based; details: for effect of blocker on response to PTC: preincubation 5 min, 0.3 mM PTC; for response to PTC after wash-off of blocker: after wash-off of 1 mM probenecid
Description: (§1) Mouse spermatogenic cells were loaded with 5 μM acetoxymethylester of Fura-2 (Fora-2/AM) and 80 μg/ml pluronic F127 (Molecular Probes, Eugene, Oreg.) and transferred onto coverslips (22×60 mm, No. 0, Thomas Scientific Co.) for at least 1 hour at room temperature. The coverslip with spermatogenic cells was mounted in a recording chamber and superfused with HS or HS containing tasting compounds or the bitter blocker probenecid (Sigma-Aldrich, St. Louis, Mo.) via a valve controller (VC-8, Warner, USA).
(§2) Imaging of calcium responses was conducted as previously described (Gomez et al, 2005). Stimulation duration was 30 seconds and perfusion rate was 0.8 ml/min. Cells were excited at 340 nm and 380 nm and signals at 510 nm were captured by a cooled CCD camera. The change in fluorescence ratio (F=F340/F380) was recorded for regions-of-interest drawn on the cells.
To confirm whether the germ cells' responses to bitter tastants were mediated by the bitter taste receptors, we examined the effect of the bitter taste receptor blocker probenecid (Greene et al, 2001) and nullification of the α-gustducin gene in Gnat3 α-gustducin knockout mice described in Wong et al, 1996. Probenecid is known to inhibit the responses of human T2R16, 38 and 43 to salicin, PTC and PROP, and aloin, but not that of T2R31 to saccharin (Greene et al, 2011).

human T2R16 = biological target: T1, human T2R16 (Homo sapiens, UniProt Q9NYV7); details: response to salicin; cited from earlier work
T1 sequence (Q9NYV7 1-291): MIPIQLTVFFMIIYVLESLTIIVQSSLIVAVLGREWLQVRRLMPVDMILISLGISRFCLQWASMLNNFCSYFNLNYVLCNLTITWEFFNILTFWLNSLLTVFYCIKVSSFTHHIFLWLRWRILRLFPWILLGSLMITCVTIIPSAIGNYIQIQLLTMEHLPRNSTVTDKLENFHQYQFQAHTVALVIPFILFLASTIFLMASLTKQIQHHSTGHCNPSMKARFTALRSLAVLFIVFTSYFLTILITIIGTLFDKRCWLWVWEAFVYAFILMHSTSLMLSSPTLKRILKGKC

human T2R38 = biological target: T2, human T2R38 (Homo sapiens, UniProt P59533); details: response to PTC and PROP; cited from earlier work
T2 sequence (P59533 1-333): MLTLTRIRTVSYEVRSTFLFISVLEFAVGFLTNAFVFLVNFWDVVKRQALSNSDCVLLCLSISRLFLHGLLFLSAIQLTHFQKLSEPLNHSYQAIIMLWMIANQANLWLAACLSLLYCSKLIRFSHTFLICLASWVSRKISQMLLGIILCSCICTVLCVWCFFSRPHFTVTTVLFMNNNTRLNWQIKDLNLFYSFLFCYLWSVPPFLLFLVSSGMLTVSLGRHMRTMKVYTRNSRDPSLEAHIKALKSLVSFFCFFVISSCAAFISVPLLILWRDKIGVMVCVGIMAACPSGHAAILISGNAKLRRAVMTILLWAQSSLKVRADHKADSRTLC

human T2R43 = biological target: T3, human T2R43 (Homo sapiens, UniProt P59537); details: response to aloin; cited from earlier work
T3 sequence (P59537 1-309): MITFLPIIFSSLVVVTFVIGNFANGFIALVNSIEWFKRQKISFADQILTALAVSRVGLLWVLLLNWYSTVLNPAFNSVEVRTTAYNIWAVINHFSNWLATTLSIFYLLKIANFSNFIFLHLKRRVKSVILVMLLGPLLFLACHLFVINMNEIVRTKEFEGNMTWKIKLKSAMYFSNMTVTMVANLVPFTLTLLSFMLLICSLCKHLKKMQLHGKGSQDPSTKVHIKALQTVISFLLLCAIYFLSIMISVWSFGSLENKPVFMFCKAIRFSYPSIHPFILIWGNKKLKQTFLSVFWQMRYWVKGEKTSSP

mouse spermatids = experiment: Calcium imaging of mouse spermatids with bitter tastants; format: cell-based; details: Mus musculus, read-out: EC50 of calcium response
Description: Eight adult male mice of each genotype: C57BL/6 and Gnat^−/− mice, were sacrificed, and the testis and caudal epididymis were immediately removed and transferred into HS solution containing (mM): 135 NaCl, 5 KCl, 2 CaCl2, 1 MgCl2, 30 Hepes, 10 glucose, 10 lactic acid, and 1 pyruvic acid (pH adjusted to 7.4 with NaOH) (Xia et al., 2007). For isolation of spermatids, seminiferous tubules from mouse testicle were dissected out and placed in a […] containing 3 ml of HS medium. The tissue was finely minced and gently triturated with a fire-polished pipette, and the mixture was filtered with a 100 μm nylon cell strainer (BD Falcon, Bedford, Mass.). The dissociated cells were collected in a 1.5 ml plastic tube, and washed once in HS medium by centrifugation at 300 g for 4 min and resuspended in HS medium.
as §1, §2
To analyze the dose-dependent calcium responses, the response intensity (FN) was normalized and expressed as ΔF/F0 value: ΔF/F0=(F−F0)/F0. Here F0 is the fluorescence at the beginning of stimulation, i.e., time 0, and F is the peak fluorescence ratio evoked by the stimulation. Dose-response curves and EC50 values were generated based on the normalized responses using the software Origins by nonlinear regression.

human T2r14 = biological target: T4, human T2r14 (Homo sapiens, UniProt Q9NYV8); details: heterologously expressed, most sensitive of five human T2rs; cited from earlier work
T4 sequence (Q9NYV8 1-317): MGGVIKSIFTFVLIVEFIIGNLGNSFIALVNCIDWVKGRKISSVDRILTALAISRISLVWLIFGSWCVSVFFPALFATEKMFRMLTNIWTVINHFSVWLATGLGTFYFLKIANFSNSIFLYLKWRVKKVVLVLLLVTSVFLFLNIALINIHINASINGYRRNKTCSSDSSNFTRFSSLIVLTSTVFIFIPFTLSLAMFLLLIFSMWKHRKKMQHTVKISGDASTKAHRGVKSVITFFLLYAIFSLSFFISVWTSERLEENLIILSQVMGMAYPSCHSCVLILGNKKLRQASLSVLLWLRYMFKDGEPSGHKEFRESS

Row | SMILES | effect of blocker on response to cycloheximide (C57B/6L wild-type sperm; 1 mM probenecid) | effect of blocker on response to PTC (C57B/6L wild-type sperm; 1 mM probenecid) | effect of blocker on response to PTC (C57B/6L wild-type sperm; 1 mM probenecid, listed as prebenecid) | response to PTC after wash-off of blocker (C57B/6L wild-type sperm) | response to PTC after wash-off of blocker (C57B/6L wild-type sperm; listed as prebenecid) | inhibition of receptor response (human T2R16) | inhibition of receptor response (human T2R38) | inhibition of receptor response (human T2R43) | EC50 (mouse spermatids) | EC50 (human T2r14)
1 | CCCN(CCC)S(=O)(=O)c1ccc(C(=O)O)cc1 [probenecid] | did not block; also recorded: no inhibitory effect | nearly undetectable | nearly completely suppressed | partially recovered | restored | inhibit | inhibit | inhibit | – | –
2 | CC(C)(O)[C@@H]1[C@H]2OC(=O)[C@@H]1[C@]1(O)C[C@H]3O[C@]34C(=O)O[C@H]2[C@]14C [picrotin] | – | – | – | – | – | – | – | – | 20 ± 10 µM | 18 µM
